Consider 3 compounds from BindingDB's records for doi:10.7270/Q29C6VXX (Burnham Center For Chemical Genomics, 2011).

SMILES strings stand for the structures.

This test addresses T1, Apoptotic protease-activating factor 1 (Homo sapiens, UniProt O14727).
T1 sequence (O14727 whole entry): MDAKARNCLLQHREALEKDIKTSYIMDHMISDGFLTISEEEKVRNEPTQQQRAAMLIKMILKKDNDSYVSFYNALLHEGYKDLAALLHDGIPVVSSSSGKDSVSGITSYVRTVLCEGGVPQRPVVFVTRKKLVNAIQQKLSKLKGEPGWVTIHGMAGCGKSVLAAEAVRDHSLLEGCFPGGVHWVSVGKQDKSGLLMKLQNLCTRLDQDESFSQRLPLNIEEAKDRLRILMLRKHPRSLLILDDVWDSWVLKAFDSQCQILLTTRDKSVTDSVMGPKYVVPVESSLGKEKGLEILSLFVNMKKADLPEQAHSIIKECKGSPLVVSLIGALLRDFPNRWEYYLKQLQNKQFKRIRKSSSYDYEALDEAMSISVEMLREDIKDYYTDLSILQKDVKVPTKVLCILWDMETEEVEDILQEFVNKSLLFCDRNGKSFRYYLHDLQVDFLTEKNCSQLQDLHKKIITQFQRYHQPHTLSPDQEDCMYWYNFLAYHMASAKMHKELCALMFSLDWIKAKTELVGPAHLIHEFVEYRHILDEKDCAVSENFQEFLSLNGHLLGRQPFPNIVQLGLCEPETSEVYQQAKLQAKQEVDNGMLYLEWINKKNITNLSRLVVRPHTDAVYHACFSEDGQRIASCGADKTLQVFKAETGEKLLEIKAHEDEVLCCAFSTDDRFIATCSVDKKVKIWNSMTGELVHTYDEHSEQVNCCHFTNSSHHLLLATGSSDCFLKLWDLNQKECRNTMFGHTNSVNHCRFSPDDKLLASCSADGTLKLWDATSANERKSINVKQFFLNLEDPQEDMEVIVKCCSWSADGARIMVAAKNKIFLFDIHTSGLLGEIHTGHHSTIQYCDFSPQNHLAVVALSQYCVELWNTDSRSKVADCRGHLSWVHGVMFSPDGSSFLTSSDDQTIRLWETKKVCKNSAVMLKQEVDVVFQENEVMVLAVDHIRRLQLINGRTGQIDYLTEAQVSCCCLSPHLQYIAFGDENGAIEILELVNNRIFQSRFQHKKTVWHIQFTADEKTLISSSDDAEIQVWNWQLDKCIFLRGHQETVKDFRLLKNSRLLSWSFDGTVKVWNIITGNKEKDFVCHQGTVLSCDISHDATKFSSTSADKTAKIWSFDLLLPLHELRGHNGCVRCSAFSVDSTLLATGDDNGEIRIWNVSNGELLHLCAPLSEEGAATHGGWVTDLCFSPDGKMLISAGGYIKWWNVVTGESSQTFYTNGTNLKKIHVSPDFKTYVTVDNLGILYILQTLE
Briefly: activation of Apaf-1 mediated apoptosis – fluorescent, uHTS hits, dose response (AID 588554).

`O=C(NN=CC1C=C(Cl)C=C([N+](=O)[O-])C1=O)NC12CC3CC(CC(C3)C1)C2` (stereo not drawn) [1-(1-adamantyl)-3-[[(E)-(3-chloro-5-nitro-6-oxo-1-cyclohexa-2,4-dienylidene)methyl]amino]urea] gave a half-maximal effective concentration (EC50) of 6.87 µM.

As for `CCOc1ccc(C(=O)CC=Nc2ccc(S(=O)(=O)NC(=N)N)cc2)cc1` [2-[4-[[(E)-3-(4-ethoxyphenyl)-3-oxidanylidene-prop-1-enyl]amino]phenyl]sulfonylguanidine], it took 6.28 µM to reach a half-maximal effect (EC50).

`CSc1ccc(CN=Nc2ccc(S(=O)(=O)Nc3ccccc3C(=O)O)cc2[N+](=O)[O-])cc1` [MLS002245633] yielded a 50% effective concentration (EC50) of 8.23 µM.

The EC50 is the concentration needed to bring the measured effect to its halfway point. A lower EC50 goes with a more potent agent.
